# Key:
# [1] = test system: IL-17 production, human PBMC cells; test: IL-17 production assay using human PBMC; type: cell-based; settings: human PBMC stimulated by cytostim for 3 days, IL-17 ELISA of supernatant
# Description: Test Example 2. IL-17 Production Assay Using Human PBMC
# • 1. Human PBMC cells (Cat No. 70025.1, Zenbio) • 2. Lymphocyte medium (Cat No. LYMPH-1, Zenbio) • 3. TexMACS (Cat No. 130-097-196, Miltenyi) • 4. Cytostim-human (Cat No. 1130-092-173, Miltenyi) • 5. Human IL-17 ELISA (Cat No. D1700, R&D systems) • 6. Tecan Infinite M1000 plate reader (Tecan)
# Experimental Procedure for IL-17 Production Assay
# Cryopreserved peripheral blood human mononuclear cells (PBMCs) were rapidly thawed in warmed Lymphocyte media, and centrifuged cell suspension at 1000 rpm for 10 minutes. The supernatant was removed, and the cell pellets were gently resuspended in TexMACS media.
# Human PBMC cells in TexMACS media were plated at 1×10^5 each well in triplicate. The test compounds at various concentrations or vehicle control (<0.5% DMSO) were added into cell culture. The cells were stimulated by cytostim (10 μL/mL) for 3 days in a humidified, 5% CO2 incubator at 37° C.
# After incubation, the cell culture supernatant was harvested, and then removed particulates by centrifugation. Human IL-17 in the supernatant was measured using human IL-17 ELISA kit according to the manufacturer's protocol. IC50 values were determined using GraphPad Prism by plotting the compounds concentration versus percent inhibition.
# RORγ LBD-GST tagged = target: T1, RORγ LBD-GST tagged (Homo sapiens, UniProt P51449); test: LanthaScreen TR-FRET RORγ coactivator assay; type: biochemical; settings: Fluorescein-D22 coactivator peptide, 1 hour room temperature
# T1 construct: RORγ LBD-GST tagged (Cat No. RORC-114H, Creative Biomart); purchased Creative Biomart RORC-114H
# T1 sequence (P51449 269-508 limits assumed): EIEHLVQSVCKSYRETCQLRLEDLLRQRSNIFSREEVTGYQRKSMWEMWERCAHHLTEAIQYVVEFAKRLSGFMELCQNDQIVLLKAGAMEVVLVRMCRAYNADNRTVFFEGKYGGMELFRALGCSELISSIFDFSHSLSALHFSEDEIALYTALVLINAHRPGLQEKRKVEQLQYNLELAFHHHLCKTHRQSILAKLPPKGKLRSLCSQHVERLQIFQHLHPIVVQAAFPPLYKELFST
# Summary of the method: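 GST-tagged RORγ LBD (25 ng/reaction) was incubated in coregulator buffer D with 5 mM DTT and compound (top 3 μM, 7-fold steps, 7 doses), then with a mix containing 0.6 μM fluorescein-D22 peptide and 8 nM Tb anti-GST antibody. After 1 h at room temperature in the dark, 520/495 nm TR-FRET was read. IC50 came from log concentration versus percent inhibition.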
SMILES,IC50 (RORγ LBD-GST tagged) [µM],IC50 [1] [µM],"IC50 ([1]; Homo sapiens, PBMC, 72 h) [µM]"
"O=S(=O)(CC1CC1)c1ccc(C(CCN2CCOCC2)c2nc3cc(-c4ccccc4OC(F)F)c(Cl)cc3[nH]2)cc1 (single isomer, unassigned) [164 or 165 made from Int-164B, (R or S)-4-(3-(6-chloro-5-(2-(difluoromethoxy)phenyl)-1H-benzo[d]imidazol-2-yl)-3-(4-((cyclopropylmethyl)sulfonyl)phenyl)propyl)morpholine]",0.418,0.35,
"CCS(=O)(=O)c1ccc(C(O)c2nc3c(Cl)c(-c4ccccc4OC(F)F)c(Cl)cc3[nH]2)cc1 (stereo not shown) [Example 30, (4,6-dichloro-5-(2-(difluoromethoxy)phenyl)-1H-benzo[d]imidazol-2-yl)(4-(ethylsulfonyl)phenyl)methanol]",0.062,,0.007
"CCS(=O)(=O)c1ccc(Cc2nc3c(Cl)c(-c4ccccc4OCCOC)c(Cl)cc3[nH]2)cc1 [Example 19, 4,6-dichloro-2-(4-(ethylsulfonyl)benzyl)-5-(2-(2-methoxyethoxy)phenyl)-1H-benzo[d]imidazole]",0.052,,0.343
"CCS(=O)(=O)c1ccc(Cc2nc3c(Cl)c(-c4ccccc4OC(F)(F)F)c(Cl)cc3[nH]2)c(Cl)c1 [Example 86, 4,6-dichloro-2-(2-chloro-4-(ethylsulfonyl)benzyl)-5-(2-(trifluoromethoxy)phenyl)-1H-benzo[d]imidazole]",0.075,,0.023
"CCS(=O)(=O)c1ccc(C(CO)c2nc3c(Cl)c(-c4ccccc4OC(C)C)c(Cl)cc3[nH]2)cc1 (stereo not shown) [Example 9, 2-(4,6-dichloro-5-(2-isopropoxyphenyl)-1H-benzo[d]imidazol-2-yl)-2-(4-(ethylsulfonyl)phenyl)ethanol]",0.475,,0.01
"CCS(=O)(=O)c1ccc(C(CO)c2nc3c(Cl)c(-c4ccccc4OCOC)c(Cl)cc3[nH]2)cc1 (stereo not shown) [Example 14, 2-(4,6-dichloro-5-(2-methoxymethoxyphenyl)-1H-benzo[d]imidazol-2-yl)-2-(4-(ethylsulfonyl)phenyl)ethanol]",0.086,,0.022
"COc1ccccc1-c1c(Cl)cc2nc(C(CO)c3ccc(S(=O)(=O)CC4CC4)cc3)[nH]c2c1Cl (stereo not shown) [Example 135, 2-(4-((cyclopropylmethyl)sulfonyl)phenyl)-2-(5,7-dichloro-6-(2-methoxyphenyl)-1H-benzo[d]imidazol-2-yl)ethanol]",0.039,,0.014
"CC(=O)NCCC(c1ccc(S(=O)(=O)CC2CC2)cc1)c1nc2cc(-c3ccccc3OC(F)F)c(Cl)cc2[nH]1 (single isomer, unassigned) [166 or 167 made from Int-164B, (R or S)—N-(3-(6-chloro-5-(2-(difluoromethoxy)phenyl)-1H-benzo[d]imidazol-2-yl)-3-(4-((cyclopropylmethyl)sulfonyl)phenyl)propyl)acetamide]",0.047,0.072,
"CCS(=O)(=O)c1ccc(C(O)c2nc3c(Cl)c(-c4ccccc4C#N)c(Cl)cc3[nH]2)cc1 (stereo not shown) [Example 23, 2-(4,6-dichloro-2-((4-(ethylsulfonyl)phenyl)(hydroxy)methyl)-1H-benzo[d]imidazol-5-yl)benzonitrile]",0.318,,0.075
"O=S(=O)(CC1CC1)c1ccc(C(CO)c2nc3c(Cl)c(-c4ccccc4OC(F)(F)F)c(Cl)cc3[nH]2)c(F)c1 (stereo not shown) [Example 81, 2-(4-((cyclopropylmethyl)sulfonyl)-2-fluorophenyl)-2-(4,6-dichloro-5-(2-(trifluoromethoxy)phenyl)-1H-benzo[d]imidazol-2-yl)ethanol]",0.035,,0.003

# Continued, in another order:
IC50 (RORγ LBD-GST tagged) [µM],SMILES,IC50 [1] [µM],"IC50 ([1]; Homo sapiens, PBMC, 72 h) [µM]"
0.028,"CCS(=O)(=O)c1ccc(C(O)c2nc3c(Cl)c(-c4ccccc4OC(F)(F)F)c(Cl)cc3[nH]2)c(F)c1 (stereo not shown) [Example 78, (4,6-dichloro-5-(2-(trifluoromethoxy)phenyl)-1H-benzo[d]imidazol-2-yl)(4-(ethylsulfonyl)-2-fluorophenyl)methanol]",,0.069
0.01,"CC(C)Oc1ccccc1-c1cc2nc(C(CC(N)=O)c3ccc(S(=O)(=O)CC4CC4)cc3)[nH]c2cc1Cl (stereo not shown) [Example 143, 3-(5-chloro-6-(2-isopropoxyphenyl)-1H-benzo[d]imidazol-2-yl)-3-(4-((cyclopropylmethyl)sulfonyl)phenyl)propanamide]",,0.027
0.034,"CCS(=O)(=O)c1ccc(C(CO)c2nc3cc(-c4ccccc4OC(F)(F)F)c(Cl)cc3[nH]2)cc1 (stereo not shown) [Example 119, 2-(6-chloro-5-(2-(trifluoromethoxy)phenyl)-1H-benzo[d]imidazol-2-yl)-2-(4-(ethylsulfonyl)phenyl)ethanol]",,0.124
0.007,"CCS(=O)(=O)c1ccc(C(N)c2nc3c(Cl)c(-c4ccccc4OC(F)F)c(Cl)cc3[nH]2)cc1 (stereo not shown) [Example 39, (4,6-dichloro-5-(2-(difluoromethoxy)phenyl)-1H-benzo[d]imidazol-2-yl)(4-(ethylsulfonyl)phenyl)methanamine]",,0.038
0.014,"CC(=O)NCC(c1ccc(S(=O)(=O)CC2CC2)cc1)c1nc2cc(Cl)c(-c3ccccc3OC(F)F)cc2[nH]1 (stereo not shown) [Example 129, N-(2-(5-chloro-6-(2-(difluoromethoxy)phenyl)-1H-benzo[d]imidazol-2-yl)-2-(4-((cyclopropylmethyl)sulfonyl)phenyl)ethyl)acetamide]",,0.242
0.016,"CCS(=O)(=O)c1ccc(Cc2nc3c(Cl)c(-c4ccccc4CCC(F)(F)F)c(Cl)cc3[nH]2)cc1 [Example 34, 4,6-dichloro-2-(4-(ethylsulfonyl)benzyl)-5-(2-(3,3,3-trifluoropropyl)phenyl)-1H-benzo[d]imidazole]",,0.049
0.006,"NCC(c1ccc(S(=O)(=O)CC2CC2)cc1)c1nc2ccc(-c3ccccc3OC(F)F)c(Cl)c2[nH]1 (stereo not shown) [Example 128, 2-(7-chloro-6-(2-(difluoromethoxy)phenyl)-1H-benzo[d]imidazol-2-yl)-2-(4-((cyclopropylmethyl)sulfonyl)phenyl)ethanamine]",,0.091
0.024,"CC(C)Oc1ccccc1-c1c(Cl)cc2nc(C(O)c3ccc(S(=O)(=O)CC4CC4)cc3)[nH]c2c1Cl (stereo not shown) [Example 133, (4-((cyclopropylmethyl)sulfonyl)phenyl)(5,7-dichloro-6-(2-isopropoxyphenyl)-1H-benzo[d]imidazol-2-yl)methanol]",,0.027
0.025,"O=S(=O)(CC1CC1)c1ccc(C(CO)c2nc3c(Cl)c(-c4ccccc4OC(F)F)c(Cl)cc3[nH]2)c(F)c1 (stereo not shown) [Example 99, 2-(4-((cyclopropylmethyl)sulfonyl)-2-fluorophenyl)-2-(4,6-dichloro-5-(2-(difluoromethoxy)phenyl)-1H-benzo[d]imidazol-2-yl)ethanol]",,0.0024
0.014,"O=S(=O)(CC1CC1)c1ccc(C(CO)c2nc3c(Cl)c(-c4ccccc4C(F)(F)F)c(Cl)cc3[nH]2)cc1 (stereo not shown) [Example 70, 2-(4-((cyclopropylmethyl)sulfonyl)phenyl)-2-(4,6-dichloro-5-(2-(trifluoromethyl)phenyl)-1H-benzo[d]imidazol-2-yl)ethanol]",,0.006

# — patent publication US12187684B2, “Benzimidazole derivatives as modulators of retinoid-related orphan receptor gamma (RORγ) and pharmaceutical use thereof” (Jiangsu Hengrui Medicine Co., Ltd., priority 2018, dated 2025)
